According to patent EP1891948A1, “Treatment of neurological and neuropsychological disorders” (Probiodrug AG, priority 2000, dated 2002):

Tested on: WistarF/Han (WF) rats
Assay: Elevated plus maze (EPM) test after i.c.v. treatment
Type: in vivo
Conditions: low dose (50pmol), Fig. 6
Experimental: Animals. Male WistarF/Han (WF) rats (Central Animal Laboratory, Hannover Medical School, Hannover, Germany, see http://www.mh-hannover.de/institut/tierlabor/wf.htm for details), weighing 350-390g, were housed in a sound-proof, temperature controlled (24.0±0.5°C) room under specific pathogen free conditions with a 12/12h dark/light cycle (lights on at 07.00 with illumination level of 80 Lux). Food (Altromin lab chow pellets) and tap water were available ad libitum. Under ketamine/xylasine (100/5 mg/kg, i.p.) anesthesia, the rats were fixed in a Kopf stereotaxic frame and implanted with cannulae (Plastic One, Inc., Roanoke, VA, USA) above the lateral ventricle. All research and animal care procedures were approved by the Lower Saxony district government (Hannover, Germany) and followed principles described in the European Community's Council Directive of 24 November 1986 (86/609/EEC). […]
Elevated plus maze (EPM) testing. […] The following parameters were calculated: Total numbers of arm entries (TA); entries to closed arms (CA); entries to open arms (OA); percentage frequency of entries to open arms (%OA: OAx100/TA); total trial duration (TT): 300s; duration of stay in closed arms (closed time; CLT); percentage share of CLT in total arms-stay duration (CLTx100/AT); duration of stay in open arms (open time; OT) and percentage share of OT in total arm-stay duration (%OT: OTx100/AT). […]

CCC(C)C(N)C(=O)N1CCSC1 (stereo not shown) [isoleucyl thiazolidine]
percentage of time spent on the open arms of the maze: increased
